# Measured values as given in patent publication US7947668B2, “Aminoalkyl sterol compounds having an anti-tumoral and neuroprotective activity” (Institut National de la Sante et de la Recherche Medicale, priority 2002, dated 2011).
# Legend:
# [1] = tested on: U937 cells; assay: Induction of vacuole production in the U937 tumoral cell line; format: cell-based, human; conditions: 10 nM, 24 hours
# Procedure: U937 cells were treated with 10 nM of the compound according to example 9 for 24 hours. The treatment methods are those described in detail in example 55.
# [2] = tested on: U-937 cells; assay: Production of IL-12p70 and IL-10 by the dendritic cells (ELISA); format: cell-based, human
# Procedure: The culture supernatants are frozen at a temperature of −80° C. until the time of testing for the presence of cytokines. The presence of IL-12p70 and IL-10 is measured using ELISA kits obtained from “Endogen” (Woburn, Mass., USA).
# This phenomenon continues for the two weeks of treatment.
# [3] = tested on: TS/A tumors implanted onto BALB/c mice; assay: Growth tests on tumors implanted onto BALB/c mice; format: in vivo; conditions: for tumor growth relative to the control mice: intradermal in the region of the tumor
# Procedure: The tumors are implanted in the following manner: 1×10^6 TS/A cells are inoculated by intradermal injection into the right side of the abdomen of 5-6-week-old BALB/c mice (Janvier breeding station, Le Genest Saint Isle).
# The test molecule is the one corresponding to example 9; it is injected on the third day intradermally in the region of the tumor; the result is shown in FIG. 7.
# The same experiment as that described above was repeated, changing the area of injection of the molecule corresponding to example 9; the injection is performed on the third day after implantation of the tumor, intradermally into the controlateral position relative to said implantation. […] This illustrates the efficacy of the treatment for an administration of the test compound remote from the tumor. The results obtained are represented by the curves in FIG. 17.
# [4] = tested on: TS/A (H-2^d) cells; assay: Cytotoxicity on TS/A mouse mammary adenocarcinoma cells in culture; format: cell-based
# Procedure: The mouse tumoral line TS/A(H-2^d) is a cell line of a spontaneous mammary adenocarcinoma of syngenic mice of BALB/c mice. They are cultured in mycoplasm-free controlled RPMI 1640 medium supplemented with endotoxin-free controlled fetal calf serum (Girco-Brio, 2 mM of glutamine, 100 U/ml of penicillin, 50 μg/ml of streptomycin, essential amino acids and sodium pyruvate.
# The cytotoxicity appears for doses of 50 μM.
# [5] = tested on: U937 cells expressing RCPG-HA; assay: Overexpression of a membrane receptor in the U937 tumoral cell line; format: cell-based, human; conditions: 10 nM, 12 hours, 48 hours after transfection
# Procedure: U937 cells were cultured in an “RPMI 1640” medium sold by the company “Gibco BRL”. A plasmid coding for an […] membrane receptor belonging to the superfamily of protein G-coupled receptors and containing an HA label is generated.
# The U937 cells expressing the receptors are generated by transfection using the “lipofectamine” reagent according to the manufacturer's instructions.
# 48 hours after transfection, the transfected cells were treated with 10 nM of compound according to example 9 for 12 hours.
# These cells were fixed in order to be examined by fluorescence microscopy.
# [6] = tested on: A549 cells; assay: Induction of vacuole production in the A549 tumoral cell line; format: cell-based, human
# Procedure: A549 cells were treated with 100 nM of compound according to example 9, for 12 hours.
# The A549 cells were obtained from the American Tissue Culture Collection (ATCC); they were inoculated at a density of 50 000 cells per well into 12-well plates and were cultured in RPMI medium supplemented with 5% fetal calf serum. To perform the treatment with the compound according to the invention, the cells are incubated with said compound (or with a control product) for 48 hours. The cells are then observed by phase-contrast microscopy every four hours to monitor the formation of vacuoles, and are then fixed with 0.4% paraformaldehyde solution in phosphate-buffered saline (PBS) at pH 7.4.
# To obtain photograph D indicated above, the process was performed as follows: after treating the cells, the culture medium is removed and the cells are washed with PBS at pH 7.4. The cells are incubated for 10 minutes with 1 μM solutions of monodansyl cadaverine (MDC). They are then rinsed thoroughly with PBS solution at 4° C. One drop of “Vectashield” solution (Vector Laboratories, CA) is added before mounting between microscope slide and cover slip: the cells are then observed rapidly under the microscope and photographed.
# The A549 cells treated as indicated above with the compound according to example 9 were also examined by electron microscopy. To examine these A549 cells by electron microscopy, they are fixed using a solution of PBS containing 3% glutaraldehyde, taken up in resin (EPON) and finally cut into thin slices using an ultra-microtome. These slices are then placed on 200-mesh copper grilles and examined by electron microscopy. […] In this FIG. 11, the letters used have the following meanings: N=nucleus; C=cytoplasm; M=mitochondria; Vi=intracytoplasmic vesicles; Ve=extracellular vesicles; MLB=multilamellar body.
# [7] = tested on: U-937 human myeloid leukemia cells; assay: Dendritogenesis on U-937 human myeloid leukemia cells; format: cell-based; conditions: 1 nM
# From the text: 2) On U-937 Human Myeloid Leukemia Cells
# [8] = tested on: A549 cells; assay: Actin and tubulin skeleton on treated A549 cells (fluorescence microscopy); format: cell-based, human
# Procedure: A549 cells were treated with the compound of example 9 according to the protocol described in detail in example 55; they are inoculated onto glass slides placed at the bottom of six-well culture dishes (NUNC) at a density of 50 000 cells per well in a nutrient medium of “RPMI 1640” type sold by the company “Gibco BRL”, supplemented with 10% fetal calf serum. The cells are then fixed with 3% paraformaldehyde solution and are permeabilized with a detergent solution containing 0.1% “Triton-X-100” in PBS. The actin skeleton of the treated cells was observed by labeling the cells with phalloidin-FITC.
# In this case, the A549 cells are labeled with an anti-γ-tubulin antibody and developed with an anti-IgG-FITC antibody.
structure (smiles),measurement,setting,value
"CC(C)CCC[C@@H](C)[C@H]1CC[C@H]2[C@@H]3C[C@@H](NCCc4c[nH]cn4)[C@@]4(O)C[C@@H](O)CC[C@]4(C)[C@H]3CC[C@]12C [Example 9, cholestane-3β,5α-diol-6β-N-[2-ethylamino(1H-imidazol-4-yl)]]",induction of vacuole production in U937 cells (electron microscopy),[1],numerous intracytoplasmic vacuoles have appeared
same,production of the p70 subunit of IL-12,"[2]; from 36 hours after the start of the treatment, continues for the two weeks of treatment",stimulates the production of the p70 subunit of IL-12
same,transcription/production of IL-10,[2]; treatments extending over a period of two weeks,does not stimulate the transcription of IL-10
same,tumor growth relative to the control mice,"[3]; 8.5 ng/g of mouse, third day",slowing-down effect
same,tumor growth relative to the control mice,"[3]; 1.7 μg/g of mouse, third day",no tumor is detectable
same,"tumor growth relative to the control mice, administration remote from the tumor","[3]; 1.7 μg/g of mouse, intradermal, controlateral position, third day",slowing-down of the tumoral growth
same,"peripheral lymphoid system, activation of the immune system","[3]; 1.7 μg/g, whether or not a tumor has been implanted",hyperplasia of the peripheral lymphoid system is observed
same,necrosis in the area of injection (anatomopathology),[3]; intradermal injection,no trace of necrosis is observable
same,toxicity on TS/A cells,"[4]; doses of 5 nM and 1 μM, irrespective of the incubation time",no toxicity is observed
same,dose at which cytotoxicity on TS/A appears,[4]; in vitro,50 µM
same,expression of RCPG-HA membrane receptor (immunofluorescence),[5],expression of a membrane receptor of RCPG type
same,induction of vacuole production in A549 cells,"[6]; 100 nM, 12 hours",massive production of cytoplasmic vacuoles
same,dose dependence of the vacuole effect,[6]; A549 cells,dose-dependent
same,time after the treatment at which the vacuole effect appears,[6]; A549 cells,six
same,time after the treatment at which the vacuole effect reaches a maximum,[6]; A549 cells,12 h
same,electron microscopy of treated A549 cells,[6]; FIG. 11.2,numerous vacuoles and mitochondria are also observed in the cytoplasm
same,reversibility of the vacuole effect,[6]; growth medium replaced with fresh medium,reversible
same,formation of rosettes (aggregate of entangled cells),[7]; after treatment for 5 days,formation of a large number of rosettes
same,size of the dendrites,[7]; after treatment for 5 days,up to 100 μm
same,induction of differentiation of the U-937 cells into dendritic cells,"[7]; treatment for 2 days, after 10 ng/ml PMA",appearance of dendritic cells
same,actin skeleton of treated A549 cells (phalloidin-FITC),[8]; FIG. 12 photograph 2,"appearance of refringent vesicles, which are surrounded by actin"
same,tubulin skeleton of treated A549 cells (anti-γ-tubulin antibody),[8]; FIG. 13 photograph 2,"presence of intracytoplasmic vacuoles, which are not surrounded with γ-tubulin"
